Reference: patent US10100010B1, “4-methoxy pyrrole derivatives or salts thereof and pharmaceutical composition comprising the same” (Daewoong Pharmaceutical Co., Ltd., priority 2015, dated 2018)

Tested on: 100% ethanol (EtOH)-induced gastric damage in rats
Experiment: 100% ethanol (EtOH)-induced gastric damage in rats, gastric damage inhibition and mucus enhancement
Assay type: in vivo, Sprague Dawley (SD) rats
Conditions: oral 3.0, 10.0 and 30.0 mg/kg, 1 hour before 100% EtOH
Description: The inhibitory activity and defensive factor-enhancing effects of the compound prepared in Example 8 were measured using 100% ethanol (EtOH)-induced gastric damage model (Paul V. Tan et al., 2002, Journal of Ethnopharmacology, 82, p 69-74). Male Sprague Dawley (SD) rats (body weight 180-200 g) was fasted for 24 hours with free access to water. Control group was orally administered with 5 mL/kg of 0.5% methyl cellulose (MC) aqueous solution, and the other groups were orally administered with test compounds suspended in 0.5% MC aqueous solution at a dose of 3.0, 10.0 and 30.0 mg/kg/5 mL. For comparison, the compound of Example 134 (Comparative Example 1), the compound of Example 165 (Comparative Example 2) and the compound of Example 166 (Comparative Example 3) in International Patent Publication No. WO2006/036024 were orally administered at the same dose by suspending 0.5% MC aqueous solution, respectively. 1 hour after oral administration, 1 mL of 100% EtOH was orally administered. 1 hour after EtOH administration, the test animals were sacrificed to remove the stomach. Ten in the total 20 animals scraped the mucus of stomach with a slide glass and the mucus contents were analyzed to calculate ED50. […] The incised stomach was placed on a fixture, fixed by a fixing pin while spreading out using a forcep and then the gastric damage area was measured to calculate ED50.

Question: What does the source list for `CNCc1cn(S(=O)(=O)c2cccc(F)c2)c(-c2ccc(F)cc2F)c1OC.Cl` [Example 8, 1-(5-(2,4-difluorophenyl)-1-((3-fluorophenyl)sulfonyl)-4-methoxy-1H-pyrrol-3-yl)-N-methylmethanamine hydrochloride]?
Answer: ED50 (Rattus norvegicus, read-out: Mucus secretion ED50): 12.2 mg/kg; Gastric index ED50 (gastric damage area): 13.4 mg/kg
